The record followed here is ChEMBL document CHEMBL1130662, “Preparation of meta-amidino-N,N-disubstituted anilines as potent inhibitors of coagulation factor Xa” (Bioorg Med Chem Lett, 1998).

For experiment [1], the target named is T1, Coagulation factor X (Oryctolagus cuniculus, UniProt O19045).
T1 sequence (O19045 whole entry): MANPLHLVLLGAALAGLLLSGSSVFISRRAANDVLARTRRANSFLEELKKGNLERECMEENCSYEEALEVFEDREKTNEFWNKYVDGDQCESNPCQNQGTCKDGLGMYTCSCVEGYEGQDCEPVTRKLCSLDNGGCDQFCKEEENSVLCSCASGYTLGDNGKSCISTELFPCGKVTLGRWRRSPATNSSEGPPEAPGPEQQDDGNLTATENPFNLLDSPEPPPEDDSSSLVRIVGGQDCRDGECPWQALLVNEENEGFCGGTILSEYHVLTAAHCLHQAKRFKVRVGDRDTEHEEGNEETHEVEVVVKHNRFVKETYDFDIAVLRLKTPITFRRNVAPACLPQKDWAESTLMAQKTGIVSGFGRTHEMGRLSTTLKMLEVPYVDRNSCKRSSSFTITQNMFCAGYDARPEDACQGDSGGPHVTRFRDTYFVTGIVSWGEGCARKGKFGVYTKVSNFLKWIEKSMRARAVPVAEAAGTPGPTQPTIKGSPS
As to the kind of experiment: Compound was tested for the inhibition of serine protease factor Xa enzyme.

Another experiment addresses Trypsin (Homo sapiens, UniProt P07477+P07478+P35030). The experiment in a line: Inhibition of serine protease trypsin enzyme. The format is protein assay, Oryctolagus cuniculus.
For experiment [2], the target named is T1, Coagulation factor X. The experiment in a line: Inhibition of serine protease factor Xa enzyme.
In a further experiment the target is Prothrombin (Homo sapiens, UniProt P00734). As to the kind of experiment: Inhibition of serine protease thrombin enzyme.
Experiment [3] concerns the target Tissue-type plasminogen activator (Homo sapiens, UniProt P00750). The experiment in a line: Compound was tested for the inhibition of serine protease tissue plasminogen activator enzyme. More on the design: species or system Oryctolagus cuniculus.
In another experiment the target is T2, Coagulation factor VII (Homo sapiens, UniProt P08709).
T2 sequence (P08709 whole entry): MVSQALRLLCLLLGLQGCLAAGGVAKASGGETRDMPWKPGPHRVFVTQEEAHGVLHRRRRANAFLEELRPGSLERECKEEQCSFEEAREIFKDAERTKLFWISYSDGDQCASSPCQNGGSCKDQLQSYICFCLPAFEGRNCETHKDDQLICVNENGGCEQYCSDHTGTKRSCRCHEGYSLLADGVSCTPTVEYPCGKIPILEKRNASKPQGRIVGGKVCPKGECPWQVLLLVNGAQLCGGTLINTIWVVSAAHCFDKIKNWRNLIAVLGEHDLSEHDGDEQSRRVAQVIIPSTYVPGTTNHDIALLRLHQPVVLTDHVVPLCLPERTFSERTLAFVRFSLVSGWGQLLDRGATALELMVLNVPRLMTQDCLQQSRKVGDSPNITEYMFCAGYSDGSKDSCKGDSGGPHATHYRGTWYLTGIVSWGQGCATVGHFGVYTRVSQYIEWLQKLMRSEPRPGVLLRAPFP
The experiment in a line: Compound was tested for the inhibition of serine protease factor VIIa enzyme. Details: species or system Oryctolagus cuniculus.

The target in a further experiment is Plasminogen (Homo sapiens, UniProt P00747). As to the kind of experiment: Compound was tested for the inhibition of serine protease plasmin enzyme. More on the design: species or system Oryctolagus cuniculus.
Experiment [4] in a line: Compound was tested for the inhibition of serine protease complement factor I enzyme. Details: species or system Oryctolagus cuniculus.

Tissue-type plasminogen activator, sequence (P00750 whole entry): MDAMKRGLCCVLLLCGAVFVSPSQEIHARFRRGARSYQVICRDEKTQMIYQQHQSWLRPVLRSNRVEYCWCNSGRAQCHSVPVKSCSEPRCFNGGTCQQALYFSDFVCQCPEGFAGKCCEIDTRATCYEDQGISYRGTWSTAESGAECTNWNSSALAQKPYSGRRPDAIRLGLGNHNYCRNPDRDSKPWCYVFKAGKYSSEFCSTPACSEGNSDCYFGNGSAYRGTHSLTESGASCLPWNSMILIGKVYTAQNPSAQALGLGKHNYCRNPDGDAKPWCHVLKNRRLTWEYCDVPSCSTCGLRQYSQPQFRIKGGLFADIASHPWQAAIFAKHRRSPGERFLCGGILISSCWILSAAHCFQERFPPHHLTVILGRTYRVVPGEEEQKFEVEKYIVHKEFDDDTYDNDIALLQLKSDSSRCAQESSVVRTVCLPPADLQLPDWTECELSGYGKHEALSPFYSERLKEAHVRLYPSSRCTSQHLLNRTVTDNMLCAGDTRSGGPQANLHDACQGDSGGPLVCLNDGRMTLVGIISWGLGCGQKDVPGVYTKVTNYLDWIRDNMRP
Plasminogen, sequence (P00747 97-580 limits assumed): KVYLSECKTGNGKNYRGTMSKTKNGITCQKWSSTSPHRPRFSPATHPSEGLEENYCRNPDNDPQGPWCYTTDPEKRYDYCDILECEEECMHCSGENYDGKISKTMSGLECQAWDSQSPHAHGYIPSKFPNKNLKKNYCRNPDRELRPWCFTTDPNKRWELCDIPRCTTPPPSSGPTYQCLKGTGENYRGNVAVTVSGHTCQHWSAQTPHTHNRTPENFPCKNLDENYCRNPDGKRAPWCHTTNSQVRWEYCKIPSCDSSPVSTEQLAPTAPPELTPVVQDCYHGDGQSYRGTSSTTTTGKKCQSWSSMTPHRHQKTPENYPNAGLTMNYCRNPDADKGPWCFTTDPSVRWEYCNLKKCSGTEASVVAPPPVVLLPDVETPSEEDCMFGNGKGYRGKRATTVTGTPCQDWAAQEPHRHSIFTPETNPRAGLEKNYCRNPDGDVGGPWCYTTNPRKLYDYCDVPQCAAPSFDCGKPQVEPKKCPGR
Plasminogen, sequence (P00747 581-810 limits assumed): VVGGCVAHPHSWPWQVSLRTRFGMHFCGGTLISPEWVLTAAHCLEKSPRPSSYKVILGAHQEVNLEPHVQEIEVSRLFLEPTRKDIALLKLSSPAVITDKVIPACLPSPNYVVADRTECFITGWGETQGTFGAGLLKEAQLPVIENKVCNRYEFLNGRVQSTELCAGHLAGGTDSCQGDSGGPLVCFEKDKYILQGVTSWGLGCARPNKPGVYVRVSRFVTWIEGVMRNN

For orientation: IC50 means the concentration that gives 50% inhibition. High values mean weaker potency, low ones greater potency. `CC(=N)N1CC[C@H](Oc2ccc([C@H](Cc3ccc4ccc(C(=N)N)cc4c3)C(=O)O)cc2)C1` [DX-9065A] came in with an IC50 on Coagulation factor X [1] of 41 nM.

As usually defined, the Ki is the dissociation constant of the complex between target and ligand, obtained from inhibition or displacement. Turning to `N=C(N)c1cccc(N(CCCc2ccc(-c3ccccc3S(N)(=O)=O)cc2)CC(N)=O)c1.O=C(O)C(F)(F)F`, the Ki amounted to 820 nM at Trypsin, 19 nM on Coagulation factor X [2] and 3500 nM at Prothrombin.

`COC(=O)CC1(C(=O)Nc2ccc(C(=N)N)cc2)CC(c2cccc(C(=N)N)c2)=NO1` (stereo not given) came in with a Ki at Coagulation factor X [2] of 94 nM.

Turning to `CC(C)OC(=O)CN(CCOc1ccc(-c2ccccc2S(N)(=O)=O)cc1)c1cccc(C(=N)N)c1.O=C(O)C(F)(F)F`, the Ki on Trypsin amounted to 52 nM; on Coagulation factor X [2], 2.1 nM; on Prothrombin, 300 nM.

Consider `COC(=O)CN(CCCOc1ccc(-c2ccccc2S(N)(=O)=O)cc1)c1cccc(C(=N)N)c1.O=C(O)C(F)(F)F`, for which the Ki at Trypsin stood at 77 nM; on Coagulation factor X [2], 6.7 nM; at Prothrombin, 600 nM.

Consider `COC(=O)CN(CCOc1ccc(-c2ccccc2S(N)(=O)=O)cc1)c1cccc(C(=N)N)c1.O=C(O)C(F)(F)F`, for which the Ki stood at 19 nM on Trypsin, 0.53 nM at Coagulation factor X [2] and 200 nM on Prothrombin.

Consider `COC(=O)CN(CCCc1ccc(-c2ccccc2S(N)(=O)=O)cc1)c1cccc(C(=N)N)c1.O=C(O)C(F)(F)F`, for which the Ki in experiment [3] was 33000 nM; at Coagulation factor VII it was 4200 nM; at Plasminogen it was 300 nM; at Trypsin it was 39 nM; on Coagulation factor X [2] it was 1.3 nM; on Prothrombin, 200 nM. In experiment [4], this compound yielded a half-inhibitory concentration (IC50) of 10000 nM.

Turning to `COC(=O)CC1(C(=O)Nc2ccc(-c3ccccc3S(N)(=O)=O)cc2)CC(c2cccc(C(=N)N)c2)=NO1` (stereo not given), at Coagulation factor X [2], affinity was put at a Ki of 6.3 nM.

On to `N=C(N)c1cccc(N(CCO)CCCc2ccc(-c3ccccc3S(N)(=O)=O)cc2)c1.O=C(O)C(F)(F)F`, for which the Ki was 710 nM on Trypsin, 17 nM on Coagulation factor X [2] and 1800 nM on Prothrombin.

As for `N=C(N)c1cccc(NS(=O)(=O)CCc2ccc(-c3ccccc3S(N)(=O)=O)cc2)c1.O=C(O)C(F)(F)F`, the Ki came to 1400 nM at Trypsin, 51 nM on Coagulation factor X [2] and 17000 nM on Prothrombin.

For `N=C(N)c1cccc(NCCCc2ccc(-c3ccccc3S(N)(=O)=O)cc2)c1.O=C(O)C(F)(F)F`, the Ki on Trypsin was found to be 850 nM; at Coagulation factor X [2], 83 nM; at Prothrombin, 6100 nM.

Regarding `COC(=O)CN(c1cccc(C(=N)N)c1)S(=O)(=O)CCc1ccc(-c2ccccc2S(N)(=O)=O)cc1.O=C(O)C(F)(F)F`, the Ki was determined as 180 nM at Trypsin, 21 nM on Coagulation factor X [2] and 9000 nM at Prothrombin.

Regarding `N=C(N)c1cccc(N(CCCc2ccc(-c3ccccc3S(N)(=O)=O)cc2)CC(=O)O)c1.O=C(O)C(F)(F)F`, the Ki at Trypsin was 470 nM; at Coagulation factor X [2], 12 nM; at Prothrombin, 1400 nM.

Consider `CC(=O)CN(CCCc1ccc(-c2ccccc2S(N)(=O)=O)cc1)c1cccc(C(=N)N)c1.O=C(O)C(F)(F)F`, for which the results for the Ki on Trypsin, on Coagulation factor X [2] and on Prothrombin were 360 nM, 16 nM and 900 nM, respectively.

Consider `COC(=O)CN(CCc1ccc(-c2ccccc2S(N)(=O)=O)cc1)c1cccc(C(=N)N)c1.O=C(O)C(F)(F)F`, for which the Ki at Trypsin was found to be 56 nM; on Coagulation factor X [2] it was 10 nM; on Prothrombin it was 400 nM.

On to `N=C(N)c1cccc(N(CCCc2ccc(-c3ccccc3S(N)(=O)=O)cc2)CCOc2ccccc2)c1`, for which the Ki came out at 16 nM at Coagulation factor X [2] and 300 nM at Prothrombin.

For `COC(=O)CC(CCc1ccc(C(=N)N)cc1)c1cccc(C(=N)N)c1` (stereo not given), the Ki on Coagulation factor X [2] came out at 34 nM.

Regarding `COCCN(CCCc1ccc(-c2ccccc2S(N)(=O)=O)cc1)c1cccc(C(=N)N)c1.O=C(O)C(F)(F)F`, the Ki amounted to 330 nM at Trypsin, 11 nM on Coagulation factor X [2] and 900 nM on Prothrombin.

Turning to `CC(C)OC(=O)CN(CCCc1ccc(-c2ccccc2S(N)(=O)=O)cc1)c1cccc(C(=N)N)c1.O=C(O)C(F)(F)F`, the values for the Ki at Trypsin, at Coagulation factor X [2] and on Prothrombin were 74 nM, 7.5 nM and 500 nM, respectively.

Turning to `CC(C)OC(=O)CN(c1cccc(C(=N)N)c1)S(=O)(=O)CCc1ccc(-c2ccccc2S(N)(=O)=O)cc1.O=C(O)C(F)(F)F`, the values for the Ki at Trypsin, on Coagulation factor X [2] and at Prothrombin were 220 nM, 37 nM and 15000 nM, respectively.
